Species: Rattus norvegicus
Experiment: Open TG-GATES - Regimen: Daily Repeat
Assay type: toxicity, organism-based, Sprague-Dawley
Design: regimen Daily Repeat, gender Male, age 6 weeks
Settings: in vivo, po, 100 mg/kg, route gavage, dose level Middle; for APTT / Bas / Eos / Fbg / Hb / Ht / Lym / MCH / MCHC / MCV / Mono / Neu / PT / Plat / RBC / Ret / WBC: tissue Blood
[1] = 72 h, tissue Kidney, time 3 day
[2] = 72 h, tissue Plasma, time 3 day

Structure (SMILES): CC[C@H]1[C@@H]2C[C@H]3[C@@H]4N(C)c5ccccc5[C@]45C[C@@H]([C@@H]2[C@H]5O)N3[C@@H]1O [AJMALINE]
- TERMINAL_BW (72 h, time 3 day): 207.1 g
- APTT (72 h, time 3 day): 16.3 s
- Bas (72 h, time 3 day): 0%
- Eos (72 h, time 3 day): 1%
- Fbg (72 h, time 3 day): 202.6 mg/dL
- Hb (72 h, time 3 day): 12.8 g/dL
- Ht (72 h, time 3 day): 39.2%
- Lym (72 h, time 3 day): 79%
- MCH (72 h, time 3 day): 21.3 pg
- MCHC (72 h, time 3 day): 32.8%
- MCV (72 h, time 3 day): 65.1 fL
- Mono (72 h, time 3 day): 6%
- Neu (72 h, time 3 day): 13.6%
- PT (72 h, time 3 day): 11.8 s
- Plat (72 h, time 3 day): 114.8 x10_4/uL
- RBC (72 h, time 3 day): 601.8 x10_4/ul
- Ret (72 h, time 3 day): 7.8%
- WBC (72 h, time 3 day): 101.3 x10_2/uL
- KIDNEY_L [1]: 1 g
- KIDNEY_R [1]: 0.9 g
- KIDNEY_TOTAL [1]: 1.9 g
- LIVER (72 h, tissue Liver, time 3 day): 9.7 g
- A/G [2]: 1.9
- ALP [2]: 888.2 IU/L
- ALT [2]: 39.2 IU/L
- AST [2]: 63 IU/L
- BUN [2]: 16.2 mg/dL
- CRE [2]: 0.5 mg/dL
- Ca [2]: 10.6 mg/dL
- Cl [2]: 102.2 meq/L
- DBIL [2]: 0.04 mg/dL
- GLC [2]: 201 mg/dL
- IP [2]: 7.9 mg/dL
- K [2]: 4.3 meq/L
- LDH [2]: 98.6 IU/L
- Na [2]: 139.2 meq/L
- PL [2]: 138 mg/dL
- RALB [2]: 3.5 g/dL
- TBIL [2]: 0.3 mg/dL
- TC [2]: 71.8 mg/dL
- TG [2]: 81 mg/dL
- TP [2]: 5.3 g/dL
- gamma-GTP [2]: 1 IU/L
- TERMINAL_BW ([…], time 7 day): 245.4 g
- TERMINAL_BW ([…], time 14 day): 299.4 g
- TERMINAL_BW ([…], time 28 day): 363.5 g
- APTT ([…], time 7 day): 16.6 s
- Bas ([…], time 7 day): 0%
- Eos ([…], time 7 day): 0.8%
- Fbg ([…], time 7 day): 231.4 mg/dL
- Hb ([…], time 7 day): 13.3 g/dL
- Ht ([…], time 7 day): 40.4%
- Lym ([…], time 7 day): 78.8%
- MCH ([…], time 7 day): 21.1 pg
- MCHC ([…], time 7 day): 32.8%
- MCV ([…], time 7 day): 64.4 fL
- Mono ([…], time 7 day): 7.6%
- Neu ([…], time 7 day): 13%
- PT ([…], time 7 day): 11.3 s
- Plat ([…], time 7 day): 128.6 x10_4/uL
- RBC ([…], time 7 day): 628 x10_4/ul
- Ret ([…], time 7 day): 6.9%
- WBC ([…], time 7 day): 119.7 x10_2/uL
- APTT ([…], time 14 day): 16.9 s
- Bas ([…], time 14 day): 0%
- Eos ([…], time 14 day): 0.8%
- Fbg ([…], time 14 day): 231.4 mg/dL
- Hb ([…], time 14 day): 14.1 g/dL
- Ht ([…], time 14 day): 42.6%
- Lym ([…], time 14 day): 80.6%
- MCH ([…], time 14 day): 20.4 pg
- MCHC ([…], time 14 day): 33.1%
- MCV ([…], time 14 day): 61.7 fL
- Mono ([…], time 14 day): 5.6%
- Neu ([…], time 14 day): 13.4%
- PT ([…], time 14 day): 11.2 s
- Plat ([…], time 14 day): 140 x10_4/uL
- RBC ([…], time 14 day): 690 x10_4/ul
- Ret ([…], time 14 day): 4.7%
- WBC ([…], time 14 day): 140 x10_2/uL
- APTT ([…], time 28 day): 16.5 s
- Bas ([…], time 28 day): 0%
- Eos ([…], time 28 day): 1%
- Fbg ([…], time 28 day): 218.6 mg/dL
- Hb ([…], time 28 day): 15.3 g/dL
- Ht ([…], time 28 day): 45.6%
